Like-named read-outs stand apart in the source and are kept apart here.
Tests used:
[1] = tested on: PC3-PIP/flu tumor-bearing mice; experiment: Biodistribution studies; assay type: in vivo, BALB/c nude mice; conditions: 48 h p.i.
[2] = tested on: PSMA-positive PC-3 PIP tumor xenografts; experiment: Therapy study in PC-3 PIP tumor-bearing mice; assay type: in vivo, BALB/c nude mice; conditions: 10 MBq
Experimental: Five days after subcutaneous inoculation of four groups of mice with either PC-3 PIP or PC-3 flu tumor cells on the right shoulder (4 × 10^6 cells in 100 μL HBSS), the mice were intravenously injected with either vehicle only (saline with 0.05% BSA, n = 6 and n = 4, respectively) or with 30 kBq [^225Ac]Ac-SibuDAB (1 nmol per mouse; n = 4 per group) diluted in vehicle (Table 1).
After tumor cell inoculation, mice bearing PC-3 PIP tumor xenografts were intravenously injected with vehicle only (n = 6) or with [^225Ac]Ac-SibuDAB or [^225Ac]Ac-PSMA-617, respectively, applied at 5 kBq or 10 kBq (1 nmol per mouse; n = 6 per group; Table 1). The control group consisted of mice from several studies (n = 12 mice) and the data from this group were published previously.
After administration of the radioligands, the mice were monitored over 8 weeks using the same measures as previously published by Umbricht et al.. The relative body mass was defined as [BMx/BM0], where BMx is the body mass in grams at a given Day x and BM0 is the body mass in grams at Day 0. The tumor dimension was determined by measuring the longest tumor axis (L) and its perpendicular axis (W) with a digital caliper. The tumor volume (V) was calculated according to the equation [V = 0.5 × (LW^2)]. The relative tumor volume was defined as [TVx/TV0], where TVx is the tumor volume in mm^3 at a given Day x, and TV0 is the tumor volume in mm^3 at Day 0. Endpoint criteria that required euthanasia were defined as (i) body mass loss of >15%, (ii) a tumor volume of >800 mm^3, (iii) a combination of body mass loss of >10% and a tumor volume of >700 mm^3 or, (iv) signs of unease and pain or a combination thereof using a scoring system as previously reported. The median survival of mice of each group was assessed with Kaplan–Meier curves. Potential early side effects for mice that survived until study end were determined based on blood chemistry and organ-to-brain mass ratios on Day 56 by comparison to values obtained from an additional group of therapy-naïve mice (n = 4) without tumors but of the same age (Supplementary Material: Section S9).
Table S10. Biodistribution data and tumor-to-background ratios obtained in PC3-PIP/flu tumor-bearing mice 48 h after injection of [225Ac]Ac-SibuDAB, [177Lu]Lu-SibuDAB, [225Ac]Ac-PSMA-617 or [177Lu]Lu-PSMA-617. Decay-corrected data of accumulated activity are shown as [% IA/g]-values, representing the average ± SD.
Biodistribution data at 48 h p.i.
1 Data of [177Lu]Lu-PSMA-617 were previously published by Benešová et al., Mol Pharm 2018 [2]; Copyright 2018, American Chemical Society.
Purpose: In order to determine the therapeutic efficacy of [225Ac]Ac-SibuDAB in com-parison to [225Ac]Ac-PSMA-617 as well as the 177Lu-labeled counterparts, therapy studies were conducted in PC-3 PIP xenograft-bearing BALB/c nude mice.
Methods: The methods of the therapy study to assess the therapeutic efficacy of [225Ac]Ac-SibuDAB are reported in the main manuscript. An additional group of mice was treated with 10 MBq (1 nmol) [177Lu]Lu-SibuDAB under the same experimental condi-tions. Data previously acquired by our group for mice treated with 5 MBq [177Lu]Lu-SibuDAB were published by Borgna & Deberle et al. and data of mice treated with 5 MBq or 10 MBq [177Lu]Lu-PSMA-617 were previously published by Tschan et al. and Umbricht et al., respectively.
Results: The assessment of the PSMA-specific therapeutic effect of [225Ac]Ac-SibuDAB as well as the comparison to [225Ac]Ac-PSMA-617 are described in the main ar-ticle. The body mass of effectively treated mice, in which the tumor disappeared entirely […]
tumor-bearing mice that were treated with only vehicle as well as for some mice that were treated with 5 kBq or 10 kBq [225Ac]Ac-PSMA-617 and experienced a relapse in tumor

[3] = cited from earlier work
[4] = tested on: PSMA-positive PC-3 PIP cells; conditions: 4 h incubation; ref Borgna & Deberle et al., Mol Pharm 2022; cited from earlier work
PSMA = molecular target: T1, PSMA (Homo sapiens, UniProt Q04609); conditions: ref Borgna & Deberle et al., Mol Pharm 2022; cited from earlier work
T1 construct: expressed in transfected cells; host or cells: PC-3 PIP prostate cancer cells (transduced to express PSMA), provided by Prof; Dr. Martin Pomper, Johns Hopkins University

[5] = tested on: PC3-PIP/flu tumor-bearing mice; conditions: ref Borgna & Deberle et al., Mol Pharm 2022, cited from earlier work
[6] = tested on: PSMA-positive PC-3 PIP tumor xenografts; set-up: method as in Borgna & Deberle et al., Mol Pharm 2022; conditions: 5 MBq, ref Borgna & Deberle et al., Mol Pharm 2022; cited from earlier work

T1 sequence (Q04609 whole entry): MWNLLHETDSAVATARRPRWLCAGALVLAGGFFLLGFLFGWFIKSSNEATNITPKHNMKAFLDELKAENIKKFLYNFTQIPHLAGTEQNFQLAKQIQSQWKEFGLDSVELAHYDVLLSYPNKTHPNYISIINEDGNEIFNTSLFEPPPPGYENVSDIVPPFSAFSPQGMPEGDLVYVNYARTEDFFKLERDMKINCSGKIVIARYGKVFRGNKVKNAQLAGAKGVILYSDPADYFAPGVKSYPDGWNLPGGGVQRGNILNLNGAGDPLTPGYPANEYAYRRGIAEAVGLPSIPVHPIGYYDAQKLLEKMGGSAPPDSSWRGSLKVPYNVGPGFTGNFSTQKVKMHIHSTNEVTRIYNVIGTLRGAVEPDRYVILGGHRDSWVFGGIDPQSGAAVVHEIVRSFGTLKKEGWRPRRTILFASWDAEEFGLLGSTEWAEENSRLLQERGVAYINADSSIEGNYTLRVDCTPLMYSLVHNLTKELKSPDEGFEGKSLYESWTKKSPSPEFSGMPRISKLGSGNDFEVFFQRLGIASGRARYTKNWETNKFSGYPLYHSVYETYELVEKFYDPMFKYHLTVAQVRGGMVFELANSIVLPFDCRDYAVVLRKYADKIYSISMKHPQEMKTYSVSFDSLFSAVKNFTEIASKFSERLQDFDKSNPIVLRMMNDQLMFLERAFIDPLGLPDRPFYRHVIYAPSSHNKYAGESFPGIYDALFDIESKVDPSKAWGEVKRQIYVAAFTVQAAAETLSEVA

## CC(C)Cc1ccc(C(C)C(=O)NC(CCN)C(=O)NCCCCC(NC(=O)CN2CCN(CC(=O)[O-])CCN(CC(=O)[O-])CCN(CC(=O)[O-])CC2)C(=O)NCC2CCC(C(=O)NC(Cc3ccc4ccccc4c3)C(=O)NCCCCC(NC(=O)NC(CCC(=O)O)C(=O)O)C(=O)O)CC2)cc1.[177Lu+3] (stereo not shown) [[^177Lu]Lu-SibuDAB]
[1]
  Blood, accumulated activity: 0.27 ± 0.04 % IA/g
  Bone, accumulated activity: ≤ 0.10 % IA/g
  Heart, accumulated activity: 0.14 ± 0.02 % IA/g
  Intestines, accumulated activity: 0.10 ± 0.03 % IA/g
  Kidneys, accumulated activity: 3.5 ± 0.7 % IA/g
  Liver, accumulated activity: 0.44 ± 0.06 % IA/g
  Lung, accumulated activity: 0.33 ± 0.07 % IA/g
  Muscle, accumulated activity: 0.07 ± 0.02 % IA/g
  PC-3 PIP tumor, accumulated activity: 69 ± 12 % IA/g
  PC-3 flu tumor, accumulated activity: 0.30 ± 0.07 % IA/g
  Salivary glands, accumulated activity: 0.18 ± 0.05 % IA/g
  Spleen, accumulated activity: 0.43 ± 0.10 % IA/g
  Stomach, accumulated activity: 0.12 ± 0.06 % IA/g
  Tumor-to-blood ratio: 252 ± 24
  Tumor-to-kidney ratio: 20 ± 2
  Tumor-to-liver ratio: 157 ± 14
[2]
  mice whose tumor xenografts disappeared completely without relapse until Day 56: five out of six
  start of tumor regrowth in the other mice: ~ 7 weeks
[2]; listed as [177Lu]Lu-SibuDAB
  mice whose tumor xenografts disappeared completely without relapse until Day 56: five out
[3]
  logD value: −2.3 ± 0.1
[4]
  Cell uptake: 53 ± 1%
  Internalized fraction: 15 ± 2%
PSMA
  Kd: 27 nM
[5]; 1 h p.i.
  Blood, accumulated activity: 17 ± 2 % IA/g
  Bone, accumulated activity: 2.1 ± 0.3 % IA/g
  Heart, accumulated activity: 5.3 ± 0.8 % IA/g
  Intestines, accumulated activity: 1.8 ± 0.3 % IA/g
  Kidneys, accumulated activity: 22 ± 5 % IA/g
  Liver, accumulated activity: 3.5 ± 0.6 % IA/g
  Lung, accumulated activity: 12 ± 2 % IA/g
  Muscle, accumulated activity: 1.9 ± 0.3 % IA/g
  PC-3 PIP tumor, accumulated activity: 38 ± 7 % IA/g
  PC-3 flu tumor, accumulated activity: 2.7 ± 0.4 % IA/g
  Salivary glands, accumulated activity: 3.5 ± 0.4 % IA/g
  Spleen, accumulated activity: 3.0 ± 0.4 % IA/g
  Stomach, accumulated activity: 1.5 ± 0.4 % IA/g
  Tumor-to-blood ratio: 2.3 ± 0.5
  Tumor-to-kidney ratio: 1.7 ± 0.3
  Tumor-to-liver ratio: 11 ± 2
[5]; 4 h p.i.
  Blood, accumulated activity: 2.9 ± 1.9 % IA/g
  Bone, accumulated activity: 0.49 ± 0.27 % IA/g
  Heart, accumulated activity: 1.1 ± 0.7 % IA/g
  Intestines, accumulated activity: 0.46 ± 0.23 % IA/g
  Kidneys, accumulated activity: 12 ± 3 % IA/g
  Liver, accumulated activity: 1.3 ± 0.5 % IA/g
  Lung, accumulated activity: 3.1 ± 2.8 % IA/g
  Muscle, accumulated activity: 0.39 ± 0.22 % IA/g
  PC-3 PIP tumor, accumulated activity: 66 ± 11 % IA/g
  PC-3 flu tumor, accumulated activity: 0.95 ± 0.71 % IA/g
  Salivary glands, accumulated activity: 0.82 ± 0.43 % IA/g
  Spleen, accumulated activity: 1.1 ± 0.6 % IA/g
  Stomach, accumulated activity: 0.49 ± 0.29 % IA/g
  Tumor-to-blood ratio: 49 ± 51
  Tumor-to-kidney ratio: 5.5 ± 1.5
  Tumor-to-liver ratio: 61 ± 29
[5]; 24 h p.i.
  Blood, accumulated activity: 0.26 ± 0.08 % IA/g
  Bone, accumulated activity: 0.11 ± 0.04 % IA/g
  Heart, accumulated activity: 0.15 ± 0.05 % IA/g
  Intestines, accumulated activity: 0.13 ± 0.06 % IA/g
  Kidneys, accumulated activity: 4.3 ± 1.0 % IA/g
  Liver, accumulated activity: 0.54 ± 0.18 % IA/g
  Lung, accumulated activity: 0.31 ± 0.10 % IA/g
  Muscle, accumulated activity: ≤ 0.10 % IA/g
  PC-3 PIP tumor, accumulated activity: 62 ± 18 % IA/g
  PC-3 flu tumor, accumulated activity: 0.38 ± 0.09 % IA/g
  Salivary glands, accumulated activity: 0.18 ± 0.05 % IA/g
  Spleen, accumulated activity: 0.40 ± 0.13 % IA/g
  Stomach, accumulated activity: 0.12 ± 0.06 % IA/g
  Tumor-to-blood ratio: 247 ± 34
  Tumor-to-kidney ratio: 14 ± 1
  Tumor-to-liver ratio: 117 ± 14
[6]
  mice whose tumor xenografts disappeared completely without relapse until Day 56: two out of six
  start of tumor regrowth in the other mice: ~ 4 weeks

— paper PMC9688344, “[^225Ac]Ac-SibuDAB for Targeted Alpha Therapy of Prostate Cancer: Preclinical Evaluation and Comparison with [^225Ac]Ac-PSMA-617” (Cancers, 2022)
